# Experimental data taken from patent publication US20150265514A1, “METHODS OF INHIBITING HAIR GROWTH” (NOGRA PHARMA LIMITED, priority 2012, published 2015).
# “Also recorded” adds a separate entry of the source.
# Columns and labels:
# [1] = tested on: keratin K15; assay: K15 quantitative immunohistochemistry in organ-cultured human scalp hair follicles; type: cell-based; settings: human scalp HF organ culture; for Keratin-15 immunoreactivity: all concentrations tested, pooled data
# Description: (§1) Normal human scalp skin was obtained from 6 women undergoing routine face-lift surgery after informed consent. All experiments were performed according to Helsinki guidelines, with appropriate ethics committee approval.
# (§2) Normally pigmented anagen VI hair follicles (HFs) (grey/white HFs were excluded from the study) were microdissected from normal human scalp skin and organ cultured following the Philpott model. Compound A or vehicle was administered once for each change of medium (i.e. every 48 h/72 h).
# To investigate keratin K15 expression, the tyramide signal amplification method was used as previously described (Kloepper et al., 2008). Briefly, acetone fixed cryosections were washed three times for 5 min using TNT (Tris-HCL NaCl Tween) buffer (0.1 mol/1 Tris-HCl, pH 7.5; containing 0.15 mol/1 NaCl and 0.05% Tween 20). Next, horseradish peroxidase was blocked by washing with 3% H2O2 in phosphate-buffered saline (PBS) for 15 min. Preincubation was performed with the incubation of avidin and biotin for 15 min and 5% goat normal serum in TNT for 30 min with washing steps in between. Mouse anti-human K15 (clone LHK15, Chemicon, Billerica, USA) was diluted in TNT and incubated overnight at 4° C. followed by a biotinylated secondary antibody goat anti-mouse (1:200 in TNT) for 45 min at RT. Next, streptavidin horseradish peroxidase (TSA kit; Perkin-Elmer, Boston, Mass., USA) was administered (1:100 in TNT) for 30 min at RT. […] The intensity of the immunostaining was quantified by ImageJ software (National Institutes of Health). The staining intensity of defined reference regions in the HF was measured and compared between control and N Compound A-treated groups. The percentage of K15-positive cells in comparison to the total amount of cells in the ORS was calculated.
# Statistical analysis was performed using a two-tailed Student's t-test for unpaired samples. […] In order to avoid data distortion by individual experiments, rigid exclusion criteria were defined that allowed to exclude one individual experiment (out of 5-6) per read-out parameter. […]
# [2] = tested on: K19; assay: K19 quantitative immunohistochemistry in organ-cultured human scalp hair follicles; type: cell-based; settings: for Keratin 19 immunoreactivity: all concentrations tested
# Description: as §1, §2
# A previously described protocol was used to investigate K19 expression (Kloepper et al., 2008). Briefly, acetone-fixed cryosections were pre-treated with goat serum (10% in Tris-buffered saline, Dako). The sections were incubated first with primary antibodies against K19 (mouse anti-human: K19-1:10; overnight, at 4° C.; PROGEN, Heidelberg, Germany;) and then with FITC-labeled goat anti-mouse (1:200 in TBS, for 45 min, RT, Jackson ImmunoResearch) immunoglobulins as secondary antibodies. Counterstaining was performed with DAPI (Boehringer Mannheim, Mannheim, Germany). The intensity of this immunostaining was quantified by ImageJ software (National Institutes of Health). The staining intensity of defined reference regions in the HF was measured and compared between control and Compound A-treated groups. The percentage of K19-positive cells in comparison to the total amount of cells in the ORS was calculated.
# Statistical analysis was performed using a two-tailed Student's t-test for unpaired samples. For meta-analysis purposes, a total of six assays (each with HFs from a different female individual) were run. […] In order to avoid data distortion by individual experiments, rigid exclusion criteria were defined that allowed to exclude one individual experiment (out of 5-6) per read-out parameter. Since these exclusion criteria differed for each study parameter, different experiments (i.e. one out of 6, and one out of 5 in the case of keratin 19 analysis) were excluded for each assay parameter. The exclusion criteria were: (i) most extreme deviation from the results trend shown by the majority among the 6 experiments, in order to avoid data distortion by outliers (which can be affected e.g. by patient's medication, medical history etc.); and (ii) failure to meet minimal quality criteria.
# [3] = tested on: anagen VI hair follicles (HFs); assay: LDH activity in supernatant of hair follicle organ culture (cytotoxicity); type: cell-based, human; settings: for LDH activity in the supernatant: 0.1 mM dose, day 6, pooled data
# Description: as §2
# (§3) Details regarding tissue specimen origin used in the present example are as described in Example 2 above.
# LDH activity in the supernatant can serve as an indicator of cytotoxicity and was measured following the manufacturer's instructions (Cytotoxicity Detection Kit; Roche, Mannheim, Germany). The absorbance of the samples was measured at 490 nm using an ELISA plate-reader.
# (§4) To evaluate apoptotic cells in colocalization with a proliferation marker Ki-67, a Ki-67/terminal dUTP nick-end labeling (TUNEL) double-staining method was used. Cryostat sections were fixed in paraformaldehyde and ethanol-acetic acid (2:1) and labeled with a digoxigenin-deoxy-UTP (ApopTag fluorescein in situ apoptosis detection kit; Intergen, Purchase, N.Y.) in the presence of terminal deoxynucleotidyl transferase, followed by incubation with a mouse anti-Ki-67 antiserum (1:20 in PBS overnight at 4 C; Dako, Glostrup, Denmark). TUNEL-positive cells were visualized by an antidigoxigenin fluorescein isothiocyanate-conjugated antibody (ApopTag kit), whereas Ki-67 was detected by a rhodamine-labeled goat antimouse antibody (Jackson ImmunoResearch, West Grove, Pa.). Negative controls were performed by omitting terminal deoxynucleotidyltransferase and the Ki-67 antibody. Counterstaining was performed with 4′,6-diamidino-2-phenylindole (DAPI) (Roche Molecular Biochemicals GmbH, Mannheim, Germany). Quantitative immunohistomorphometry was performed; Ki-67-, TUNEL-, or DAPI-positive cells were counted in a previously defined reference region of the HF matrix, and the percentage of Ki-67/TUNEL-positive cells were determined. […] In order to avoid data distortion by individual experiments, rigid exclusion criteria were defined that allowed to exclude one individual experiment (out of 5-6) per read-out parameter. […]
# [4] = tested on: anagen VI hair follicles (HFs); assay: Hair shaft elongation in hair follicle organ culture; type: cell-based, human
# Description: as §2, §3
# Hair shaft length measurements of HFs were performed on individual HFs using a Zeiss inverted binocular microscope with an eyepiece measuring graticule.
# as §4, with “determined. Statistical analysis was performed using a two-tailed Student's t-test for unpaired samples.” for “determined.”
# [5] = tested on: anagen VI hair follicles (HFs); assay: HF cycle staging (anagen/catagen) in hair follicle organ culture; type: cell-based, human
# Description: as §2, §3
# HF cycle staging was carried out according to previously defined morphological criteria, and the percentage of HFs in anagen and early, mid, or late catagen was determined.
# as §4, with “determined. Statistical analysis was performed using a two-tailed Student's t-test for unpaired samples.” for “determined.”
# [6] = listed as N-acetyl-(R)-(−)-3-(4-aminophenyl)-2-methoxypropionic acid
smiles,measurement,setting,value
"CO[C@H](Cc1ccc(NC(C)=O)cc1)C(=O)O [Compound A, N-acetyl-(R)-(−)-3-(4-aminophenyl)-2-methoxypropionic acid]",Keratin-15 immunoreactivity,[1],strongly stimulated
same,Keratin-15 immunoreactivity,[1]; [6],stimulation
same,number of K15-positive cells,[1],did not increase
same,Keratin 19 immunoreactivity,"[2]; human scalp HF organ culture, pooled data",strongly stimulated
same,Keratin 19 immunoreactivity,"[2]; human scalp HF organ culture, pooled data, listed as N-acetyl-(R)-(−)-3-(4-aminophenyl)-2-methoxypropionic acid",stimulation
same,number of K19-positive cells relative to control,[2]; human scalp HF organ culture,stimulating effect
same,numbers of K19 positive cells,"[2]; low and high concentrations, pooled data",increased numbers
same,LDH activity in the supernatant,[3],slight increase
same,LDH activity in the supernatant,[3]; [6],increase
same,HF toxicity under assay conditions,[3]; concluded from LDH activity,"very low, if any"
same,hair shaft elongation,"[4]; high dose (1 mM), day 6, pooled data","slightly, but significantly, inhibited; also recorded: inhibits hair shaft elongation"
same,hair shaft elongation,"[4]; high dose (1 mM), day 6, pooled data, listed as N-acetyl-(R)-(−)-3-(4-aminophenyl)-2-methoxypropionic acid",inhibition
same,hair shaft elongation,[4]; lower concentrations (below 1 mM),did not have an effect
same,hair cycle effect (catagen),"[5]; all concentrations, pooled data",induced catagen; also recorded: catagen-inducing effect
same,hair cycle effect (catagen),"[5]; analysis of the individual 5 experiments, percentage of each hair cycle stage, n=5",strong trend towards induction of catagen
same,hair cycle effect (catagen),"[5]; analysis of the individual 5 experiments, percentage of each hair cycle stage, n=5, listed as N-acetyl-(R)-(−)-3-(4-aminophenyl)-2-methoxypropionic acid",trend toward catagen
